This note sets out measurements from patent US12060334B2, “3-substituted phenazine derivatives as antimicrobial agents” (University of Florida Research Foundation, Incorporated, priority 2021, dated 2024).

One series relates to Mtb CDC1551. The series can be described thus: microbe, parasite or virus in culture. The format is cell-based, Mycobacterium tuberculosis.
Another series has as its system MRSA 1. As to the kind of experiment: MIC assay against clinical isolate. The class given is cell-based, S. aureus. The conditions noted are these: Staphylococcus aureus.
The test system of a further series is MRSA 2. The series can be described thus: MIC assay against clinical isolate. The format is cell-based, S. aureus. The conditions noted are these: Staphylococcus aureus.
Another series relates to S. aureus 129. The series can be described thus: MIC assay against clinical isolate. The class given is cell-based. The conditions noted are these: Staphylococcus aureus.
The test system of a further series is S. aureus 147. The series can be described thus: MIC assay against clinical isolate. The class given is cell-based. The conditions noted are these: Staphylococcus aureus, 147; clinical isolate; read-out: MIC S. aureus 147.
In a further series the test system is S. aureus 138. As to the kind of experiment: MIC assay against clinical isolate. The format is cell-based. The conditions noted are these: Staphylococcus aureus.
A further series concerns S. aureus 156. The series can be described thus: MIC assay against clinical isolate. The class given is cell-based. The conditions noted are these: Staphylococcus aureus, 156, read-out: MIC S. aureus 156.
The test system of another series is human red blood cells. As to the kind of experiment: Hemolysis assay with red blood cells. The conditions noted are these: human RBCs, 1 hour, 37° C. Here is the method:
Hemolysis assays are used to determine the membrane-lysis activity of a compound, which is of particular interest to this work as membrane-lysing agents (e.g., QACs) can eradicate biofilms.
Cytotoxicity Assay against HEK-293 Cells.^48 The viability of HEK-293 cells was assessed by the MTT assay. The cells were cultured in DMEM medium containing 10% fetal bovine serum and 100 U/mL penicillin and streptomycin. The cells (10^4 cells/well) were seeded onto a 96-well plate and maintained at 37° C. in a humidified incubator under 5% CO2 overnight. […] After incubation at 37° C. for 72 hours, 10 μL of MTT (5 mg/mL) in PBS was added to each well and incubated for 4 hours, followed by the aspiration of the medium. Dimethyl sulfoxide (DMSO, 100 μL) was then added to each well to dissolve the MTT in the wells, and the plate was agitated for 1 hour. The optical density (OD) was measured at 570 nm using a UV/vis microplate spectrophotometer (BioTek). The percent inhibition was calculated as follows: Inhibition (%)=(1−test OD570/non-treated OD570)×100%. The data were analyzed by Origin. Hemolysis Assay with Red Blood Cells. […] The washing was repeated three times with the buffer. In 96-well plate, test compounds were added to the buffer from DMSO stocks. […] The plate was then incubated for 1 hour at 37° C. After incubation, the plate was centrifuged for 5 minutes at 3,500 rpm before 80 μL of the supernatant was transferred to another 96-well plate to obtain an optical density (OD) read at 405 nm. DMSO served as the negative control (0% hemolysis) while Triton X served as the positive control (100% hemolysis) in these experiments. The percent hemolysis was calculated as (OD405 of the compound treated RBCs−OD405 DMSO control)/(OD405 Triton X treated RBCs−OD405 buffer) from three independent experiments.

Series [1] in a line: pKa determination by UV-vis spectroscopy. The format is physicochemical. As to the method:
(c) pKa determination of select HP analogues.^36 Dissociation constants (pKa) for select HP analogues were determined using UV-vis spectroscopy and the Henderson-Hasselbalch equation. Buffers were prepared using potassium phosphate monobasic (KH2PO4) and sodium phosphate dibasic ([…]) in a 1:1 solution of water:methanol to achieve a pH range of 4.07 to 9.66 (ammonium hydroxide was added to prepare buffer pH over 9.80). Compounds were added from 10 mM stock solutions in dimethyl sulfoxide (25 μL) to 1975 μL of each buffer to each evaluate analogue to yield a final compound concentration of 125 μM. Full spectral scans were performed from 200 to 800 nm in 2 nm increments to determine λmax values for the protonated phenol (HA) and the deprotonated phenolate species (A^−). The change in absorption at each determined λmax in relation to pH was monitored in each buffer and plotted as absorbance versus pH for each species. The pKa was first estimated by determining the pH of the point of intersection of the two linear curves. The visual estimation was confirmed by plotting pH versus log [A^−/HA]. The resulting plot yielded a linear regression line with a Y-intercept corresponding to a calculated pKa value.

The test system of another series is HEK-293 cells. As to the kind of experiment: MTT cytotoxicity assay, HEK-293. The conditions noted are these: read-out: HEK-293 Cytotox. (IC50), 72-h. Background: Formazan colour is commonly taken as a measure of viable cells.
For a further series, the system named is HepG2 cells. As to the kind of experiment: Alamar Blue cytotoxicity assay, HepG2. The conditions noted are these: read-out: Hep G2 Cytotox. (IC50), 24-h. For orientation: The colour change of resazurin is a common sign of viable cells or microbes.
The test system of another series is HeLa cells. The series can be described thus: LDH release assay for HeLa cytotoxicity. The conditions noted are these: read-out: HeLa Cell Cytotox. (IC50), 24-h, tested at 25, 50 and 100 μM. For orientation: Release of lactate dehydrogenase indicates damage to the cell membrane.
A further series deals with MRSA-1707. The series can be described thus: MIC susceptibility assay (broth microdilution). The conditions noted are these: 16 h; for MIC MRSA-1707: planktonic growth inhibition, 37° C.
The subject of the next series is MRSA-44. As to the kind of experiment: MIC susceptibility assay (broth microdilution). The conditions noted are these: Staphylococcus aureus, 16 h, read-out: MIC MRSA-44.
Series [2] relates to isdB, sfaA, sbnC, MW0695 transcripts in MRSA-1707 biofilms. As to the kind of experiment: RT-qPCR of iron uptake genes in MRSA biofilms. The conditions noted are these: 4 h treatment at 1 μM or 1/10×MBEC.
For series [3], the system named is E. faecalis OG1RF. As to the kind of experiment: MIC susceptibility assay (broth microdilution). The conditions noted are these: Enterococcus faecalis, 16 h, read-out: MIC E. faecalis OG1RF.
Method: (§1) (MIC values were further supported by spectrophotometric readings at OD600). The concentration range tested for each HP compound during this study was 0.05 to 50 μM. DMSO served as our vehicle and negative control in each microdilution MIC assay. DMSO was serially diluted with a top concentration of 0.5% v/v.
In the next series the test system is J774 MΦ. As to the kind of experiment: Alamar Blue cytotoxicity assay, J774 macrophages. The conditions noted are these: read-out: J774 MΦ Cytotox. (IC50), 24-h.
The test system of series [4] is E. faecalis OG1RF. As to the kind of experiment: E. faecalis dorsal wound infection model in mice. The conditions noted are these: C57BL/6J mice, topical PEG ointment once a day, day 3.
From the text: (§2) In separate experiments, wounds were created on the mouse's dorsal mid-section using a biopsy punch to remove the dermal layer. The resulting wound was inoculated with either S. aureus UAMS-1 (1×10^7 CFU/mL), or E. faecalis OG1RF ([…] CFU/mL) to establish infection.
Enterococcus faecalis strain OG1RF was used in animal experiments during these investigations. Seven-week old female C57BL/6J mice were purchased from Jackson Laboratories Ltd. and housed according to the University of Florida's approved IACUC protocol 201709769.
E. faecalis Dorsal Wound Infection Model. […] On day 3 (2 days of treatment) post-infection, animals were euthanized and the wounds aseptically excised using a surgical blade and the tissues homogenized in 1 mL of sterile PBS. The homogenates were serially diluted and plated on trypticase soy (TSA) agar containing rifampicin and fusidic acid for bacterial enumeration.
In a further series the test system is S. aureus UAMS-1. As to the kind of experiment: S. aureus dermal (dorsal) wound infection model in mice. The conditions noted are these: BALB/c mice, topical 2% PEG ointment every 12 hours, three consecutive days.
Series [5] deals with MRSA, MRSE and VRE strains. As to the kind of experiment: MIC assays, summary statements over several Gram-positive strains. The conditions noted are these: for MICs against all Gram-positive strains in the panel: result in words.
Method: as §1
Another series deals with MRSA 44 biofilms. The series can be described thus: Calgary Biofilm Device (CBD) assay. The conditions noted are these: biofilm eradication in CBD assay.
A further series has as its system MRSE 35984 biofilms. The series can be described thus: Calgary Biofilm Device (CBD) assay.
Another series deals with VRE 700221 biofilms. As to the kind of experiment: Calgary Biofilm Device (CBD) assay. The conditions noted are these: Enterococcus, read-out: VRE 700221 MBC.
Series [6] relates to E. faecalis OG1RF biofilms. The series can be described thus: Calgary Biofilm Device (CBD) assay. The conditions noted are these: Enterococcus faecalis, OG1RFBIOFILMS, read-out: E.faecalis OG1RF MBC.
Another series relates to MRSE 35984. The series can be described thus: MIC susceptibility assay (broth microdilution). The conditions noted are these: Staphylococcus epidermidis, MRSE, 16 h, read-out: MIC MRSE 35984.
Setting [7] is: Mycobacterium tuberculosis, CDC1551, 120 h.

≈ marks a conversion by molar mass, not a printed value. Where “and” joins values, the source holds several entries; their conditions need not be identical. Equal values may be shown once. Entries after “also recorded” stand apart in the source; their conditions may differ. Read-outs that look alike come from different tables or passages of the source. Marks after values point to notes of the source that are not given here.

Method for MRSA-44: as §1
From the text for S. aureus UAMS-1: as §2
Staphylococcus aureus strain UAMS-1, a well-characterized antibiotic susceptible clinical isolate commonly used to study the organism's biofilm formation and colonization properties, was used in animal experiments during these studies.^59 Female BALB/c mice 4 to 6 weeks of age were obtained from Charles River Laboratories International, Inc. (Wilmington, MA) and housed individually according to approved University of Rochester Medical Center Council on Animal Research (UCAR) protocol UCAR-101864/2017-022.
S. aureus Dermal Wound Infection Model. The effects of ointment compilations were evaluated for in vivo antimicrobial activity using a dermal wound infection mouse model, as previously described.^52 Briefly, mice were anesthetized by intraperitoneal injection with a mixture of 100 mg kg^−1 Ketamine (Hospira Inc., Lake Forest IL) and 10 mg kg^−1 Xylazine (Lloyd Laboratories, Shenandoah IA) in PBS. Two mg kg^−1 meloxicam (Henry Schein Animal Health, Portland, ME) was administered prior to dermal wounding. […]

In the case of `Cc1cccc2nc3c(O)c(Br)c(Cl)c(Br)c3nc12` [Compound 29, 2,4-Dibromo-3-chloro-6-methylphenazin-1-ol], the MIC turned out to be 1.59 µM (≈ 0.64 µg/mL) in the series with Mtb CDC1551; 1.59 µM (≈ 0.64 µg/mL) against Mtb CDC1551 (setting [7]); 0.06 µM (≈ 0.0241 µg/mL) in the series on MRSA 1; 0.12 µM (≈ 0.0483 µg/mL) against MRSA 2; 0.12 µM (≈ 0.0483 µg/mL) against S. aureus 129; 0.12 µM (≈ 0.0483 µg/mL) in the series with S. aureus 147. Besides, the MIC is 0.08 µM (≈ 0.0322 µg/mL) with S. aureus 138; 0.08 µM (≈ 0.0322 µg/mL) in the series with S. aureus 156; 0.08 µM (≈ 0.0322 µg/mL) in the series with MRSA-44; 0.3 µM (≈ 0.121 µg/mL) with E. faecalis OG1RF [3]; 0.05 to 0.1 µM (≈ 0.0201 to 0.0402 µg/mL) in series [5] (read-out: MIC against MRSA, MRSE and VRE strains); 0.075 µM (≈ 0.0302 µg/mL) in series [5] (read-out: MIC against MRSA/MRSE strains). Besides, the “% Hemolysis at 200 μM” value with human red blood cells is not above 1%. The compound also came in with a pKa in [1] of 6.79. Moreover, the IC50 was 18.3 ± 5.8 µM with HEK-293 cells, more than 200 µM in the series with HepG2 cells, more than 100 µM in the series with HeLa cells and more than 200 µM in the series on J774 MΦ. Further, the “MIC MRSA-1707” value against MRSA-1707 is recorded as 0.08^a μM. Moreover, in series [2], the “iron starvation / up-regulation of iron uptake genes in MRSA-1707 biofilms” value is on record as “induction of iron starvation; also recorded: up-regulating iron uptake genes; also recorded: induced rapid iron starvation; also recorded: rapidly induce iron starvation”. Moreover, the “log10 reduction of E. faecalis OG1RF compared to vehicle control” value with E. faecalis OG1RF [4] came to 1.73 log10. In the series on S. aureus UAMS-1, the “log10 reduction in CFU per lesion of S. aureus UAMS-1 compared to vehicle” value worked out at 0.82 log10. In addition, in [5], the “MICs against all Gram-positive strains in the panel” value is “sub-micromolar”.
Regarding `Oc1c(Br)c(Cl)c(Br)c2nc3c(Cl)cc(Cl)cc3nc12` [Compound 34, 2,4-Dibromo-3,6,8-trichlorophenazin-1-ol], the MIC stood at 0.8 µM (≈ 0.366 µg/mL) against Mtb CDC1551 (setting [7]); 1.25 µM (≈ 0.572 µg/mL) with MRSA 1; 0.94 µM (≈ 0.43 µg/mL) in the series with MRSA 2; 0.63 µM (≈ 0.288 µg/mL) in the series on S. aureus 129; 0.47 µM (≈ 0.215 µg/mL) with S. aureus 147; 0.94 µM (≈ 0.43 µg/mL) in the series with S. aureus 138. Also, the MIC is 0.47 µM (≈ 0.215 µg/mL) with S. aureus 156; 0.59 µM (≈ 0.27 µg/mL) in the series on MRSA-1707 (Staphylococcus aureus, MRSA, read-out: MIC MRSA-1707, planktonic growth inhibition, 16 h, 37° C.); 0.15 µM (≈ 0.0686 µg/mL) in the series with MRSA-44; not above 0.05 µM with MRSE 35984; 0.3 µM (≈ 0.137 µg/mL) with E. faecalis OG1RF [3]. In addition, in the series with human red blood cells, the “% Hemolysis at 200 μM” value is recorded as not above 1%. Moreover, the “MRSA 44 MBEC” value in the series with MRSA 44 biofilms is on record as 6.25^b/6.25^b μM. Moreover, the “log10 reduction of viable MRSE biofilm cells” value in the series on MRSE 35984 biofilms (CFU counts from CBD pegs, at the MBEC value) came to 3.18±0.40 log10. Besides, the MBC in the series with MRSE 35984 biofilms (Staphylococcus epidermidis, MRSE, read-out: MRSE 35984 MBC) was found to be 0.59 µM (≈ 0.27 µg/mL); with VRE 700221 biofilms, 0.39 µM (≈ 0.178 µg/mL); in [6], 3.13 µM (≈ 1.43 µg/mL). Further, in the series with MRSE 35984 biofilms (at 3.13 μM), the “log10 reduction of viable CFUs, MRSE 35984 biofilm” value was approximately 5 log10. Also, the values for the IC50 with HepG2 cells, with HeLa cells and with J774 MΦ were more than 200 µM, more than 100 µM and more than 200 µM, respectively. For the same compound, the “MIC MRSA-1707” value against MRSA-1707 is 0.59^a μM and 0.59 μM. In addition, in series [5], the “MICs against all Gram-positive strains in the panel” value was “sub-micromolar”.

As usually defined, the pKa is the pH at which an ionisable group is half protonated. Low values mean a stronger acid or weaker base, high ones a weaker acid or stronger base. Broadly, the IC50 is the concentration that inhibits the measured activity by half.
